Calls of active or inactive are those of the source. The calls are words filed in the database; no cut-off is given here.
Experiments:
Trypanosoma brucei [1] = assay: Activation of N-terminal His6-tagged Trypanosoma brucei CTPS assessed as Gln-dependent CTP formation by continuous spectrophotometric assay
Trypanosoma brucei [2] = assay: Inhibition of N-terminal His6-tagged Trypanosoma brucei CTPS assessed as Gln-dependent CTP formation at > 0.2 mM by continuous spectrophotometric assay
Escherichia coli [3] = assay: Activation of Escherichia coli CTPS assessed as Gln-dependent CTP formation at < 0.15 mM by continuous spectrophotometric assay
[4] = Inhibition of N-terminal His6-tagged Trypanosoma brucei CTPS assessed as NH3-dependent CTP formation by continuous spectrophotometric assay
Escherichia coli [5] = assay: Inhibition of Escherichia coli CTPS assessed as Gln-dependent CTP formation at > 0.15 mM by continuous spectrophotometric assay
Trypanosoma brucei [6] = assay: Activation of N-terminal His6-tagged Trypanosoma brucei CTPS assessed as Gln-dependent CTP formation at <0.2 mM by continuous spectrophotometric assay
Trypanosoma brucei [7] = assay: Inhibition of N-terminal His6-tagged Trypanosoma brucei CTPS assessed as Gln-dependent CTP formation at by continuous spectrophotometric assay
[8] = Activity of Escherichia coli CTPS assessed as conversion of UTP to CTP at pH 7.3 by continuous spectrophotometric assay
Trypanosoma brucei [9] = conditions: 494.32 mM
Description: Inhibition of N-terminal His6-tagged Trypanosoma brucei CTPS assessed as conversion of UTP to CTP at 494.32 mM at pH 7.3 by continuous spectrophotometric assay

[10] = Activity of N-terminal His6-tagged Trypanosoma brucei CTPS assessed as conversion of UTP to CTP at pH 7.3 by continuous spectrophotometric assay
Trypanosoma brucei [11] = system: Trypanosoma brucei
Description: Ratio of Kcat to Km for N-terminal His6-tagged Trypanosoma brucei CTPS assessed as conversion of UTP to CTP by continuous spectrophotometric assay

Trypanosoma brucei [12] = conditions: 5.67 mM
Description: Inhibition of N-terminal His6-tagged Trypanosoma brucei CTPS assessed as conversion of UTP to CTP at 5.67 mM by continuous spectrophotometric assay

Escherichia coli [13] = system: Escherichia coli
Trypanosoma brucei [14] = system: Trypanosoma brucei; remark: listed apart in the source
Escherichia coli [15] = system: Escherichia coli; remark: listed apart in the source
Description: Ratio of Kcat to Km for Escherichia coli CTPS assessed as conversion of UTP to CTP by continuous spectrophotometric assay

Nc1nc(=O)c2ncn([C@@H]3O[C@H](COP(=O)(O)OP(=O)(O)OP(=O)(O)O)[C@@H](O)C3O)c2[nH]1 (single isomer, unassigned) [GTP]
KA (Trypanosoma brucei [1]): 57 µM | Kact (Trypanosoma brucei [1]): 0.87 s⁻¹ | inhibition (Trypanosoma brucei [2]): Active | kcat (Escherichia coli [3]): 10.6 s⁻¹ | IC50 [4]: 460 µM | Ki [4]: 272 µM | inhibition (Escherichia coli [5]): Active | Activity (Trypanosoma brucei [6]): Active | inhibition (Trypanosoma brucei [7]): Active

Cn1c(=O)c2c(ncn2C)n(C)c1=O [CAFFEINE]
IC50 [4]: 480 µM

Nc1nc2c(ncn2[C@@H]2O[C@H](CO)[C@@H](O)[C@H]2O)c(=O)[nH]1 [GUANOSINE]
IC50 [4]: 380 µM

Oc1nc(O)c2nc(O)[nH]c2n1 [URIC ACID]
IC50 [4]: 100 µM

N [AMMONIA SOLUTION, STRONG]
Ki [8]: 1400 µM | inhibition (Trypanosoma brucei [9]): Active | Ki [10]: 5700 µM | kcat/Km (Trypanosoma brucei [11]): 727 M⁻¹ s⁻¹ | inhibition (Trypanosoma brucei [12]): Active | Ks (Escherichia coli [13]): 1.1 mM | kcat (Escherichia coli [13]): 4.4 s⁻¹ | Ks (Trypanosoma brucei [14]): 2.2 mM | kcat (Trypanosoma brucei [14]): 1.6 s⁻¹ | kcat/Km (Escherichia coli [15]): 4 ×10³ /M/s

Reference: ChEMBL document CHEMBL1817579, “Activation and inhibition of CTP synthase from Trypanosoma brucei, the causative agent of African sleeping sickness” (Bioorg Med Chem Lett, 2011)
